Marks after values point to notes of the source that are not given here.
What was measured:
MMP-9 = assay: Gene expression of MMP-9 by quantitative RT-PCR in NHEK; format: cell-based, human; conditions: (Ia) 3 ppm (10^−5M), 24 hours
Experimental: (§1) In these examples, the expression of the messenger RNA is measured by the technique of quantitative RT-PCR (reverse transcription followed by polymerase chain reaction), after incubation in vitro of the various cell types in the absence or in the presence of compound (Ia).
(§2) This study was carried out on normal human dermal Fibroblasts (NHDF) or normal human epidermal Keratinocytes (NHEK). The compound (Ia) is tested at 10^−5M in an aqueous solution with 0.1% dimethylsulfoxide.
(§3) The cells are cultured at the concentration of 10,000 cells per well of 96-well plates, in the presence of standard culture medium according to the cell type.
(§4) The compound (Ia) is then added at the concentration (3 ppm), for 24 hours.
(§5) The supernatant is eliminated and the cells are taken up in a specific buffer for the extraction of the messenger RNA (mRNA). The mRNA is purified and reverse transcribed in the presence of a commercial reverse transcriptase.
(§6) The complementary DNA (cDNA) obtained is quantified by RT-PCR, by means of suitable primers. The rate of expression of the mRNA is normalised with 5 reference genes.
(§7) The cells used for this example are normal human keratinocytes (NHEK).

ELN (Elastin) = assay: Elastin immunofluorescence on human skin explants after repeated UVA irradiation; format: cell-based; conditions: skin explant, (Ia) 100 ppm
Experimental: In these examples, the protective properties of the compound (Ia) against the damage caused to the DNA and to the extracellular matrix by repeated UVA irradiation, are measured on explants of human skin (NATIVESKIN, Genoskin).
Upon reception of the explants, the latter are topically coated with Carbopol® (Lubrizol)+DMSO for the non-UVA control (CTL without stress) and for the control with stress by UVAs (CTL UVA), and with Carbopol®+compound (Ia) at 100 ppm for the test.
Over three days, the cells are subjected to three stresses with UVAs at a rate of 50 joules per square centimetre.
The first irradiation takes place 24 hours after the treatments. The products are present before, during and after the irradiation. The control without stress is wrapped in aluminium and also placed in the irradiator.
During the irradiation, the explants inserted are disposed in a petri dish with PBS. Fresh medium (Genoskin Culture medium) is added after the irradiation.
After the third day of irradiation, the explants are cultivated for 24 hours, then collected and fixed for 48 hours in formalin (Sigma). The samples are included in paraffin and cut.
Marking of the protein elastin is carried out by immunofluorescence on a paraffin section.
The samples are prepared for the fluorescent marking. […]
The sections are mounted on a slide and the fluorescence is quantified using a microscope (Leica DM5000B).

MMP-3 = assay: Gene expression of MMP-3 by quantitative RT-PCR in NHEK; format: cell-based, human; conditions: (Ia) 3 ppm (10^−5M), 24 hours
Experimental: as §1, §2, §3, §4, §5, §6, §7

NHEK cells = assay: DNA double-strand breaks (γ-H2AX) induced by cigarette extract in NHEK; format: cell-based, human; conditions: (Ia) 10 ppm pretreatment 24 h and treatment 24 h, cigarette extract 1/50, Control 10346, Cigarette extract 13269
Experimental: The cells used for this example are normal human Fibroblasts (NHDF) and normal human epidermal Keratinocytes (NHEK).
The cells are cultured at the concentration of 3000 cells per well of 96-well plates in the presence of standard culture medium for NHDF or NHEK (for 24 hours, 37° C., 5% CO2).
After pretreatment of the cells with the compound (Ia) at 10 ppm for 24 hours, the cells are treated with the cigarette extract diluted to 1/50° with or without compound (Ia) at 10 ppm for 24 hours. […].
After washing, the samples are then placed in the presence of DAPI for 10 min in order to mark the nuclei, then rinsed once again. The marked proteins are observed and quantified with an automated fluorescence microscope (ArrayScan® (Cellomics®)). The cells treated by the compound (Ia) are then compared to the untreated cells or to the cells only exposed to the cigarette extract.

IL-8 = IL-8 assay (ELISA) in culture supernatants of NHEK after induction with IL-1β; format: cell-based, human
Experimental: This study is carried out on normal human Keratinocytes (NHEK).
In this example, the anti-inflammatory properties of the compound (Ia) are evaluated by the assay of the IL-8, after the application of the cytokine IL-1β at 10 ng/ml onto NHEKs. IL-8 is a major inflammatory cytokine produced first of all during the inflammatory response of the keratinocytes. The quantification of the IL-8 in the culture supernatants allows an evaluation of the inflammatory state of the cells.
The IL-1β is added to the culture medium of the NHEKs at a rate of 10 ng/ml for 24 h. After incubation, the culture media are removed and replaced with culture media containing the compound (Ia) at 3 ppm. After 24 h of incubation, the supernatants are collected.
The reference anti-inflammatory element is dexamethasone (Sigma) used at 0.4 ppm. A control having undergone the same experimental conditions without the compound (Ia) (CTL), as well as a non-induced control (CTL without IL-1β), are also carried out.
The quantification of the IL-8 in 50 μl of the culture supernatants is measured by an ELISA test (human CXCL8/IL-8 Immunoassay, R&D Systems).
Each treatment is carried out in triplicate.

Sirtuin-6 = assay: Protein expression of Sirtuin-6 by immunofluorescence in NHDF; format: cell-based, human; conditions: (Ia) 10 ppm, 24 hours
Experimental: The cells used for this example are normal human Fibroblasts (NHDF).
In this example, the expression of Sirtuin-6 is measured at the protein level by the technique of immunofluorescence, after in vitro incubation of the cells in the absence or in the presence of compound (Ia) at a concentration of 10 ppm in an aqueous solution with 0.1% dimethylsulfoxide (DMSO).
The cells are cultured at the concentration of 5000 cells per well of 96-well plates, in the presence of standard culture medium for NHDF.
The contact with the compound (Ia) is carried out for 24 hours.
TGFβ is used as a positive control at the concentration of 10 ng/ml in an aqueous solution. A non-treated control is also carried out.
The supernatant is eliminated and the cells are prepared for the fluorescent marking. The cells are fixed in the presence of 3.7% formaldehyde, then permeabilised in a buffer containing 1% Triton®, finally the cells are rinsed and incubated in the presence of an anti-SIRT6 antibody (Abcam) for 2 hours. After washing, the cells are incubated in the presence of the secondary antibody (Alexa GAR488, Invitrogen) for 1 h. After washing, the cells are incubated in the presence of DAPI for 10 min, then rinsed once again.
The fluorescence is then quantified using an automated microscope (ArrayScan® (Cellomics®)).

Compound: Cc1ncc(CO)c(CNC(=O)/C=C/c2ccc(O)c(O)c2)c1O [Compound (Ia)]
- Reduction of the gene expression compared to the basal level based on 100% (MMP-9) (MMP-9): −75%
- Average fluorescence intensity of the marking ELN (AU) (ELN (Elastin); CTL UVA 145.9, CTL without stress 160.4): 182.4 AU
- Cells positive for ELN based on 100% (ELN (Elastin); relative to CTL without stress, CTL UVA −9%): +14%
- Reduction of the gene expression compared to the basal level based on 100% (MMP-3) (MMP-3): −50%
- Double-strand breaks of the DNA for NHEK (AU) (NHEK cells): 11193* AU
- inhibition at 3 ppm (IL-8; Homo sapiens, compound 3 ppm, versus control CTL, read-out: inhibition of the production of IL8 in keratinocytes subjected to inflammation in the presence of IL-1β): 30%
- Quantification of the IL8 (optical density) (IL-8; IL-1β 10 ng/ml 24 h, then substance 24 h, compound (Ia) 3 ppm, dexamethasone 0.4 ppm, CTL 0.23, CTL without IL-1β 0.06): 0.16 optical density
- Protein expression of the Sirtuin-6 compared to the basal level, based on 100% (Sirtuin-6): 113.69%

Source: patent publication US10918891B2, “Cosmetic treatment method for the skin” (SYNTIVIA, priority 2016, dated 2021)
